ChEMBL document CHEMBL5291721, “A preclinical secondary pharmacology resource illuminates target-adverse drug reaction associations of marketed drugs” (Nat Commun, 2023)

What was measured:
[1] = target: T1, Muscarinic acetylcholine receptor M4 (Homo sapiens, UniProt P08173)
T1 sequence (P08173 whole entry): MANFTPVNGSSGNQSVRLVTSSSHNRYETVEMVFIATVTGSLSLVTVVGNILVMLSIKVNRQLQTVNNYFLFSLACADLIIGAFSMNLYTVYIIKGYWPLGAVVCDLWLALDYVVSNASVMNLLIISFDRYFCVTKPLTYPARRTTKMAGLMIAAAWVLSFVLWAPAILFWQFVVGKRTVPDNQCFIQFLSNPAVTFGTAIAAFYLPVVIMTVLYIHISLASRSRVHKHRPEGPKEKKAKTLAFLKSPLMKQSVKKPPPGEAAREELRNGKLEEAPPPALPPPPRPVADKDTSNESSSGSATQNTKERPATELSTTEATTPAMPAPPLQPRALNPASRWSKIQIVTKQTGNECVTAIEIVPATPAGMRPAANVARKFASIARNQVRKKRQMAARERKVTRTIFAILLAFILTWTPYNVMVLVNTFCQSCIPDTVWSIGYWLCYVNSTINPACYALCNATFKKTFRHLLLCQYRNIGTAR

Cannabinoid receptor 1 = Cannabinoid receptor 1 (Homo sapiens, UniProt P21554); format: functional
Cannabinoid receptor 1, sequence (P21554 whole entry): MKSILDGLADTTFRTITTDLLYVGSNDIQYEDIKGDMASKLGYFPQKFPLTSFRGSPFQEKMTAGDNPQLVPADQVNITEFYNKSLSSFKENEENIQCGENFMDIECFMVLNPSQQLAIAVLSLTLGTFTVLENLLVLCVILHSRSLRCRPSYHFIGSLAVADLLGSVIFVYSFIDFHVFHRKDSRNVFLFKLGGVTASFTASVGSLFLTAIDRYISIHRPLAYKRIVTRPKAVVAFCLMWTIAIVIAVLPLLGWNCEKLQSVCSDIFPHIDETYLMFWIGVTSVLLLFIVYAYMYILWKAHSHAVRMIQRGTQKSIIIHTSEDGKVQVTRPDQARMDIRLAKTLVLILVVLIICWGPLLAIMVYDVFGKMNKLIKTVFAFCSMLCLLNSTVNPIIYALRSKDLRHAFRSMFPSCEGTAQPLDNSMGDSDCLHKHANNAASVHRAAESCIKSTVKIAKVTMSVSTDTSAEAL

Estrogen receptor [2] = target: T2, Estrogen receptor (Homo sapiens, UniProt P03372); format: functional
T2 sequence (P03372 whole entry): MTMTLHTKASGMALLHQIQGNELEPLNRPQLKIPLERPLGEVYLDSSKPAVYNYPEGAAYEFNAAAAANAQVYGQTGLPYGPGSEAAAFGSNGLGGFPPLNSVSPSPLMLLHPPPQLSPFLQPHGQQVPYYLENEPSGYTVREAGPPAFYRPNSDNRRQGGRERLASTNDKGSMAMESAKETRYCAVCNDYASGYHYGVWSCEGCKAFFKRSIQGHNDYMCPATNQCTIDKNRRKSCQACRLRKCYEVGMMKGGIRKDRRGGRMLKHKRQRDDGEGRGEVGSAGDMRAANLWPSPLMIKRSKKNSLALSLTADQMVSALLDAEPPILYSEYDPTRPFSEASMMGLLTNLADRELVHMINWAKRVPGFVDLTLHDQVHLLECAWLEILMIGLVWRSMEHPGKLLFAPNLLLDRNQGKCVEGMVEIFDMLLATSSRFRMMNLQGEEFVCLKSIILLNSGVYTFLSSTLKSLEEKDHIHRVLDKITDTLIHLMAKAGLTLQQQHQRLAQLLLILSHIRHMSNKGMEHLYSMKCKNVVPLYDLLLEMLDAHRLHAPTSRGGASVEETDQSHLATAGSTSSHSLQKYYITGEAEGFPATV

Estrogen receptor [3] = target: T2, Estrogen receptor; format: functional; remark: listed apart in the source
[4] = target: Gamma-aminobutyric acid type B receptor subunit 1 (Homo sapiens, UniProt Q9UBS5)
Gamma-aminobutyric acid type B receptor subunit 1, sequence (Q9UBS5 whole entry): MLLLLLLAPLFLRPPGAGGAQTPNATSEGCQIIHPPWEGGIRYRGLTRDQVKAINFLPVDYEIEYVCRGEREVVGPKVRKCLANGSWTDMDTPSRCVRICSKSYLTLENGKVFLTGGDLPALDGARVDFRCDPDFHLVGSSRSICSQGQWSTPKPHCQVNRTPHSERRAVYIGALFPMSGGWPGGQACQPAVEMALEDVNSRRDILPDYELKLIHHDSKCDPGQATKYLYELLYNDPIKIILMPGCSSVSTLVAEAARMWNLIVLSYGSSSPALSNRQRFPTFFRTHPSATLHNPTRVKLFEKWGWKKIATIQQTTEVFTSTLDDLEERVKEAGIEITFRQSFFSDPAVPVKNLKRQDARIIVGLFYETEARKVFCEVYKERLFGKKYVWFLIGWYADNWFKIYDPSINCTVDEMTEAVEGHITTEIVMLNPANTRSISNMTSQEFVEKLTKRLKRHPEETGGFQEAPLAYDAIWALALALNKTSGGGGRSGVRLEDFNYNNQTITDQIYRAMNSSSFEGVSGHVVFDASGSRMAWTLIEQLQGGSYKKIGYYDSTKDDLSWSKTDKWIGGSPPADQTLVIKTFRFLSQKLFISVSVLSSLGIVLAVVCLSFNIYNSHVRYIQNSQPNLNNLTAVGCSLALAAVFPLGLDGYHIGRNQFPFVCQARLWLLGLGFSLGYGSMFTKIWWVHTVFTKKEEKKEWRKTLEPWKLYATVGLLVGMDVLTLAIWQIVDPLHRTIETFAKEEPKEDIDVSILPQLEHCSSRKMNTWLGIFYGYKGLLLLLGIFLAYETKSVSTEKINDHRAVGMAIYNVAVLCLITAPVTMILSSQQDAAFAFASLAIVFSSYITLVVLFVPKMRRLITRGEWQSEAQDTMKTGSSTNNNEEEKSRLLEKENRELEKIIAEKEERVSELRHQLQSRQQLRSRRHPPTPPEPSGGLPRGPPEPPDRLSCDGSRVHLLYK

[5] = target: 5-hydroxytryptamine receptor 2B (Homo sapiens, UniProt P41595)
5-hydroxytryptamine receptor 2B, sequence (P41595 whole entry): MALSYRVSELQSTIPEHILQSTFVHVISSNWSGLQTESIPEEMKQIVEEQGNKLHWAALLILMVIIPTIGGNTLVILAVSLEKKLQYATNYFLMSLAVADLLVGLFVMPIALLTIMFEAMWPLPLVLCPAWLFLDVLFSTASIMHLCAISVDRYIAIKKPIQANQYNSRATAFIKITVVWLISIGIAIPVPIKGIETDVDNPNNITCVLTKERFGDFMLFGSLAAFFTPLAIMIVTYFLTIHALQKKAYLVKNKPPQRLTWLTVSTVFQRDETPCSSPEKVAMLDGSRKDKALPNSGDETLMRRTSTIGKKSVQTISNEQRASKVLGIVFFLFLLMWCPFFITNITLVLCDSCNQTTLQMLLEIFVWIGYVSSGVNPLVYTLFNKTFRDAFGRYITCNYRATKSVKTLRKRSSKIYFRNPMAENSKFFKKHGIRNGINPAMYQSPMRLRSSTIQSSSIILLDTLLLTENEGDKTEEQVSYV

[6] = target: T3, Peroxisome proliferator-activated receptor gamma (Homo sapiens, UniProt P37231); format: functional
T3 sequence (P37231 whole entry): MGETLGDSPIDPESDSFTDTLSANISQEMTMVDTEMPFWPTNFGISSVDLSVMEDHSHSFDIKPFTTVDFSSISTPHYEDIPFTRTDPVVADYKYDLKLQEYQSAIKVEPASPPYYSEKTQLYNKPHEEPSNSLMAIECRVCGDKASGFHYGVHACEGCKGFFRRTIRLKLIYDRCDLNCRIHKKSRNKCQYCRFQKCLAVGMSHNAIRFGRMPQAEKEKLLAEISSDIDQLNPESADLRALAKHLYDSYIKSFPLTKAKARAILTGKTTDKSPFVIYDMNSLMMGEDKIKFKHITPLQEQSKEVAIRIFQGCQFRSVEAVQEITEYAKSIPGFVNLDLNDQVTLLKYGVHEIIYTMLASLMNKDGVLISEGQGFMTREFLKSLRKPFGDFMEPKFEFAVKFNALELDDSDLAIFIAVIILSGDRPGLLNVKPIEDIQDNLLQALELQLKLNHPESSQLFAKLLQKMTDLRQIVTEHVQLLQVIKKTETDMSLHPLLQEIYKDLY

Substance-P receptor = Substance-P receptor (Homo sapiens, UniProt P25103)
Substance-P receptor, sequence (P25103 whole entry): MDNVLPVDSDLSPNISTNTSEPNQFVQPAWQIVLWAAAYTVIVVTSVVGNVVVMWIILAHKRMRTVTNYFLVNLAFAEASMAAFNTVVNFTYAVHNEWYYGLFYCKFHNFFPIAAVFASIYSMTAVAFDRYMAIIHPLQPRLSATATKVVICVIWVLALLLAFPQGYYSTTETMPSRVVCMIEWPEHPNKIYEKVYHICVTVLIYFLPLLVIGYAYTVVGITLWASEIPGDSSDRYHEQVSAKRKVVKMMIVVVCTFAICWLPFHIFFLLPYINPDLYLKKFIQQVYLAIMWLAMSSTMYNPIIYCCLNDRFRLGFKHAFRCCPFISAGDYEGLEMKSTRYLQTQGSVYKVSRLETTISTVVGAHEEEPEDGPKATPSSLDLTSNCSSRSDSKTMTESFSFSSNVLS

D(1A) dopamine receptor = D(1A) dopamine receptor (Homo sapiens, UniProt P21728); format: functional, cell-based
D(1A) dopamine receptor, sequence (P21728 whole entry): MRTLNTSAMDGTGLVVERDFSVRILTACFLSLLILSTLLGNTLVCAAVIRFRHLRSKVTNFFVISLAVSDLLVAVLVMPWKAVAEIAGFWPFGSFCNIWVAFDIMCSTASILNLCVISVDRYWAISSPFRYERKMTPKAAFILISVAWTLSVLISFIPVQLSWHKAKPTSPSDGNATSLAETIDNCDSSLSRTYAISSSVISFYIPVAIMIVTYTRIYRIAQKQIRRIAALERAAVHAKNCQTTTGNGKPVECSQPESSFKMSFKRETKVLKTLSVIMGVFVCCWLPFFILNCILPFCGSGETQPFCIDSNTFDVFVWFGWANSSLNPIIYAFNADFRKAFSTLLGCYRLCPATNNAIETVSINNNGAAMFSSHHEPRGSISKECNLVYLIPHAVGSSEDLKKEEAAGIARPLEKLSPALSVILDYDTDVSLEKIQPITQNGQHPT

Thromboxane A2 receptor = target: T4, Thromboxane A2 receptor (Homo sapiens, UniProt P21731); format: functional
T4 sequence (P21731 whole entry): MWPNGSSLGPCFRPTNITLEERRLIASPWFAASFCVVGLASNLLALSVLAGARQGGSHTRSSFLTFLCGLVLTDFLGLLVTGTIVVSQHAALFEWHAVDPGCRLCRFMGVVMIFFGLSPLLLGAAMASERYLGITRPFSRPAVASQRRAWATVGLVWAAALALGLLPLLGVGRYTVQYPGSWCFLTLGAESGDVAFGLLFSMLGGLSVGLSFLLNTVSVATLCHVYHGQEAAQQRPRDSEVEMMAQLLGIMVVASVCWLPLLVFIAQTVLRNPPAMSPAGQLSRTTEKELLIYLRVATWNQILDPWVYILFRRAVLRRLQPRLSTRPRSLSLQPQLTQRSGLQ
Also: assay procedure not described here.

SMILES	AC50 [1] [µM]	AC50 (Cannabinoid receptor 1) [µM]	AC50 (Estrogen receptor [2]) [µM]	AC50 (Estrogen receptor [3]) [µM]	AC50 [4] [µM]	AC50 [5] [µM]	AC50 [6] [µM]	AC50 (Substance-P receptor) [µM]	AC50 (D(1A) dopamine receptor) [µM]	AC50 (Thromboxane A2 receptor) [µM]
CCOc1nc2cccc(C(=O)O)c2n1Cc1ccc(-c2ccccc2-c2nnn[nH]2)cc1	> 10	> 10	> 30	> 30	> 10	> 10	18	> 10	–	–
CCCc1nc2c(C)cc(-c3nc4ccccc4n3C)cc2n1Cc1ccc(-c2ccccc2C(=O)O)cc1	–	> 10	> 30	> 30	> 10	> 10	19	> 10	–	–
CCOc1cc([C@@H](CS(C)(=O)=O)N2C(=O)c3cccc(NC(C)=O)c3C2=O)ccc1OC	–	–	> 30	> 30	–	–	> 30	–	> 30	> 30
CC1(C)S[C@@H]2[C@H](NC(=O)C(C(=O)O)c3ccccc3)C(=O)N2[C@H]1C(=O)O (stereo partly drawn) [CARBENICILLIN]	–	–	–	–	–	–	> 30	–	–	–
Cc1nnc(SCC2=C(C(=O)O)N3C(=O)[C@@H](NC(=O)Cn4cnnn4)[C@H]3SC2)s1 [CEFAZOLIN]	–	–	> 300	> 300	–	–	> 300	–	> 300	> 300
CC(C)(O/N=C(\C(=O)N[C@@H]1C(=O)N2C(C(=O)[O-])=C(C[n+]3ccccc3)CS[C@H]12)c1csc(N)n1)C(=O)O [CEFTAZIDIME]	–	–	> 300	48	–	–	–	–	> 300	> 300
Clc1ccc(Cn2c(CN3CCCC3)nc3ccccc32)cc1 [CLEMIZOLE]	–	–	–	–	–	–	> 30	–	> 30	> 10
CCC(=O)O[C@]1(C(=O)CCl)[C@@H](C)C[C@H]2[C@@H]3CCC4=CC(=O)C=C[C@]4(C)[C@@]3(F)[C@@H](O)C[C@@]21C [CLOBETASOL PROPIONATE]	–	–	> 30	> 30	–	–	18	–	–	–
Cc1nc(Nc2ncc(C(=O)Nc3c(C)cccc3Cl)s2)cc(N2CCN(CCO)CC2)n1 [DASATINIB]	> 10	> 10	–	–	> 10	7.6	–	–	–	–
CC(C)Cc1ccc([C@H](C)C(=O)O)cc1 [DEXIBUPROFEN]	–	–	> 30	> 30	–	–	–	–	–	–
O=C(O)Cc1ccccc1Nc1c(Cl)cccc1Cl [DICLOFENAC]	> 10	> 10	–	–	> 10	> 10	–	> 10	–	–
CNC[C@H](O)c1ccc(O)c(O)c1 [EPINEPHRINE]	–	–	> 30	> 30	–	–	> 30	–	–	–
O=C(O)Cc1ccccc1Oc1ccc(Cl)cc1Cl [FENCLOFENAC]	–	–	–	–	–	> 10	–	> 10	–	–
Cc1onc(-c2c(F)cccc2Cl)c1C(=O)N[C@@H]1C(=O)N2[C@@H]1SC(C)(C)[C@@H]2C(=O)O [FLOXACILLIN]	–	–	–	–	–	–	> 30	–	> 30	> 30
Cc1ccc(C)c(OCCCC(C)(C)C(=O)O)c1 [GEMFIBROZIL]	–	–	–	–	> 10	> 10	–	> 10	–	–
COc1cc(C(C)=O)ccc1OCCCN1CCC(c2noc3cc(F)ccc23)CC1 [ILOPERIDONE]	–	–	> 30	> 30	–	–	> 30	> 10	–	–
CC[C@H](C)C(=O)O[C@H]1C[C@@H](C)C=C2C=C[C@H](C)[C@H](CC[C@@H]3C[C@@H](O)CC(=O)O3)[C@H]21 [LOVASTATIN]	–	–	–	–	–	> 10	–	> 10	–	–
CC(CN1c2ccccc2Sc2ccccc21)N(C)C (stereo not drawn) [PROMETHAZINE]	–	–	–	–	–	0.0679	–	> 10	–	–
CN(CCOc1ccc(CC2SC(=O)NC2=O)cc1)c1ccccn1 (stereo not drawn) [ROSIGLITAZONE]	–	> 10	–	–	> 10	> 10	–	> 10	–	–
S=P(N1CC1)(N1CC1)N1CC1 [THIOTEPA]	–	–	> 30	> 30	–	–	> 30	–	> 30	> 10
CC(C)[C@H](N)C(=O)OCCOCn1cnc2c(=O)[nH]c(N)nc21 [VALACYCLOVIR]	–	–	–	–	–	> 10	–	> 10	–	–
O=C1Cc2cc(CCN3CCN(c4nsc5ccccc45)CC3)c(Cl)cc2N1 [ZIPRASIDONE]	–	–	–	–	–	0.0137	–	–	–	–
